The values below come from patent US20230220047A1, “PEPTIDES FOR TREATMENT OF SEPSIS AND CANCER” (NORWEGIAN UNIVERSITY OF SCIENCE AND TECHNOLOGY (NTNU), priority 2020, published 2023).

Entries after “also recorded” stand apart in the source; their conditions may differ.

For assay [1], the system named is RPMI 8226 multiple myeloma cells. As to the kind of experiment: CellTiter-Glo cell viability assay, RPMI 8226. The format is cell-based, human. To be noted: RPMI 8226, 10 μM, 48 h. The procedure: (§1) Minor effects on the proliferation of the IH-1 and RPMI 8226 cell lines are seen. Cells were seeded at the level shown (left-hand bar of each set) then incubated in medium containing water, 10 μM penetratin or 10 μM P7-A4-Pen for 48 hr (except for INA-6 cells, which were incubated with 12.5 μM penetratin or 12.5 μM P7-A4-Pen). The number of viable cells was detected based on quantitation of ATP by luminescent signal in correlation to a standard curve prepared for each cell line. Results are based on 3-5 biological replicates for each condition, error bars show standard deviation of mean.
(§2) Multiple myeloma cells JJN-3 (DSMZ (Germany) no. ACC 541), ANBL-6 (Cellosaurus accession number CVCL_5425, obtained from Dr Diane Jelinek, Mayo Clinic, Rochester, Minn.), INA-6 (Cellosaurus accession number CVCL_5209, obtained from Dr M. Gramatzki, University of Erlangen-Nurnberg, Erlangen, Germany), RPMI-8226 (ATCC CCL-155), and IH-1 (Cellosaurus accession number CVCL_WZ44, established from the pleural effusion of a myeloma patient by Myeloma research group, IKOM, NTNU, Trondheim, Norway) were grown in RPMI-1640 (Sigma-Aldrich Norway, Oslo, Norway) supplemented with 100 nM penicillin/streptomycin and 10% FCS, and for ANBL-6, IH-1 and INA-6 cells 2 ng/ml recombinant IL-6 (Gibco, Thermo Fisher Scientific, Waltham, Mass., USA). […]
On the technique in general: Cellular ATP, detected with luciferase, serves as a proxy for viable cell number.

Assay [2] concerns caspase-3. As to the kind of experiment: Western blot for cleaved caspase-3 in JJN-3 cells. The format is cell-based, human. The conditions noted are these: JJN-3, 10 μM, 24 or 48 h. On the procedure:
JJN-3 cells were cultured for 24 or 48 hours with a control peptide (penetratin) or P7-A4-Pen, both at 10 μM. Cells were then lysed and lysates analysed by Western blot for cleaved caspase-3. Presence of cleaved (i.e. activated) caspase-3 is an indicator of apoptotic pathway activation. Cleaved caspase 3 was detected at high levels in the cells treated with P7-A4-Pen for 24 or 48 hours, and only at much lower levels in the cells treated with the control peptide. β-tubulin was detected as a loading control.
To investigate the mechanism of cytotoxicity mediated by the anti-proliferative peptides of the invention, the effect of the peptide P7-A4-Pen on caspase-3 activation in JJN-3 multiple myeloma cells was investigated. Caspase-3 is a pro-apoptotic caspase which is activated by cleavage by upstream caspases 8, 9 and 10 in response to cell death stimuli. Activated, cleaved caspase-3 cleaves and activates caspases 6 and 7, which induce apoptosis. JJN-3 multiple myeloma cells were incubated with 10 μM P7-A4-Pen or Penetratin control for 24 or 48 hours, lysed and analysed by Western blot to investigate caspase-3 activation (by blotting cleaved caspase-3).
(In general: Immunoblotting shows a protein as a band on a membrane.)

The subject of assay [3] is INA-6 multiple myeloma cells. Put plainly: CellTiter-Glo cell viability assay, INA-6. It is filed as cell-based, human. The conditions noted are these: INA-6, 12.5 μM, 48 h. On the procedure: as §1, §2
Assay [4] deals with THP-1 cells. As to the kind of experiment: Viability of acute myeloid leukaemia cell line THP-1. It is filed as cell-based, human. To be noted: 5-30 μM, 48 h. The procedure: THP-1 cells were seeded in medium at 10,000 cells/well, as indicated by the dotted line. Cells were incubated for 48 hours in medium supplemented with water, C3A-Pen, P7-Pen, P7-A4-Pen or P7-N4-Pen. The peptides were included at concentrations ranging from 5-30 μM. At 48 hours cells were counted. […] The results with other peptides were less clear-cut. Results are based on 3 biological replicates, error bars show standard deviation of mean.
The peptides were tested against the SW480 cell line in the presence and absence of LPS.

Assay [5] has as its system murine TLR7. As to the kind of experiment: TLR7-mediated cytokine expression in murine macrophages (R848). The conditions noted are these: R848 (data not shown). It is filed as cell-based, mouse. From the text:
Thus, P7-Pen interferes with signaling initiated by human TLR7 and TLR8, but has no effect on signaling via murine TLR7 (murine TLR8 is believed to be non-functional).

For assay [6], the system named is TLR2. As to the kind of experiment: Primary human macrophages stimulated with FSL-1: cytokine mRNA, Western blot, IRAK precipitations. The conditions noted are these: primary human macrophages (data not shown). The format is cell-based. On the procedure:
Primary human macrophages (PBMC derived, differentiated in media with 10% human serum and M-CSF 20 ng/ml, 7 days) were stimulated with K12 LPS (100 ng/ml), FSL-1 (100 ng/ml) or CL075 (3 μg/ml). […] (B) qPCR for mRNA expression of IFNβ, IL-6, TNF and IL-1β, average for three biological replicates, error bars ±SD.
Primary human macrophages (7 days) were pre-treated with Pen or P7-Pen (15 μM) for 30 min before addition of LPS (100 ng/ml), FSL-1 (100 ng/ml) or CL075 (3 μg/ml). A: Protein expression in lysates for input control. B,C: Precipitations were performed using sheep anti-IRAK4 (B) or anti-IRAK1 (C) polyclonal antibodies covalently bound to magnetic beads.
The effect of P7-Pen on TLR2-mediated pro-inflammatory cytokine expression was investigated.

On to “Ac-ITVAASVTLTGRQIKIWFQNRRMKWKK-NH2 [Peptide P7-A4-Pen]”, for which the cell proliferation result is on record as “Minor effects; also recorded: inhibited cell proliferation” in assay [1] and “strongly inhibited cell proliferation” in assay [3]. Also, the caspase-3 cleavage entry in assay [2] is “strongly stimulates”. Also, in assay [4], the “effect on THP-1 cell number” value is “anti-proliferative effect”.
On to “Ac-ITVYASVTLTGRQIKIWFQNRRMKWKK-NH2 [Peptide P7-Pen]”, for which the TLR7-mediated cytokine expression result in assay [5] is given as “no effect”. Further, the “expression of pro-inflammatory cytokines induced by TLR2/6 agonist FSL-1” value in assay [6] was “no effect”.
